The text below walks through data of patent US10035800B2 (AbbVie Inc., priority 2013, dated 2018).

Test [1] addresses T1, BRD4 (BDI_K57-E168) (Homo sapiens, UniProt O60885).
T1 construct: BD1: amino acids K57-E168; made in house
Put plainly: TR-FRET bromodomain binding assay, first bromodomain of BRD4. To be noted: TR-FRET assay protocol G (compound 0.92 μM-15 pM); 100 nM probe. The gist of the method:
(§1)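 Ki values derive from IC50s using probe Kd and concentration, with IC50s fitted to normalized TR-FRET ratios (Ex 340/Em 495, 520). Compounds competed against an Alexa647-labelled BET-inhibitor (100 nM BDI, 30 nM BDII) for 8 nM His-tagged bromodomain bound by Eu-anti-His antibody, 1 h, room temperature, pH 6.0.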
Background: TR-FRET usually uses a lanthanide donor and a delayed reading to cut background.

Test [2] concerns the target T2, BRD4 (BDII_E352-M457) (Homo sapiens, UniProt O60885).
T2 construct: protocol; made in house
In words: TR-FRET bromodomain binding assay, second bromodomain of BRD4. To be noted: TR-FRET assay protocol G (compound 0.92 μM-15 pM); 30 nM probe. In outline:
as §1

Test [3] has as its system breast cancer cell line MX-1. Put plainly: MX-1 cell line proliferation assay. The format is cell-based. To be noted: MX-1 cells, 3-day proliferation assay, Cell Titer Glo; read-out: Cellular proliferation: EC50. In outline: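 EC50 comes from sigmoidal fits of Cell Titer Glo luminescence relative to DMSO controls, with assay MSR 2.1. Ten-point 3-fold dilutions (top 3 or 1 μM final) were added to MX-1 breast cancer cells after overnight adhesion. Cells were at 5000/well and proliferation ran 3 days.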

Each structure is given as a SMILES string.

By Ki is commonly meant a measure of affinity in units of concentration, obtained from inhibition or displacement. Read a low Ki as tighter binding. As to `COC(=O)NC1CCC(N2Cc3c[nH]c4c(=O)n(C)cc(c34)-c3cc(CS(C)(=O)=O)ccc32)CC1` (stereo not drawn) [Example 226, methyl ((cis)-4-(10-methyl-7-((methylsulfonyl)methyl)-11-oxo-10,11-dihydro-1H-1,4,10-triazadibenzo[cd,f]azulen-4(3H)-yl)cyclohexyl)carbamate], the Ki in test [1] turned out to be 0.00384 µM; in test [2] it was 0.00186 µM. Further, in test [3], the EC50 is 0.00782 µM.

With `Cn1cc2c3c(c[nH]c3c1=O)C(C1CCOCC1)N(c1ccc(F)cc1F)c1ccc(CS(C)(=O)=O)cc1-2` (stereo not drawn) [Example 228, 4-(2,4-difluorophenyl)-10-methyl-7-((methylsulfonyl)methyl)-3-(tetrahydro-2H-pyran-4-yl)-3,4-dihydro-1H-1,4,10-triazadibenzo[cd,f]azulen-11(10H)-one], the Ki is 0.0245 µM in test [1] and 0.00222 µM in test [2]. Also, in test [3], the EC50 is 0.0849 µM.

Regarding `Cn1cc2c3c(c[nH]c3c1=O)C(c1ccccc1-c1ccccc1)N(c1ccc(F)cc1F)c1ccc(CS(C)(=O)=O)cc1-2` (stereo not drawn) [Example 230], the inhibition constant Ki in test [1] is more than 0.238 µM; in test [2], 0.0581 µM. Further, the EC50 in test [3] stood at 0.528 µM.

Consider `Cn1cc2c3c(c[nH]c3c1=O)C(c1cccc3cccnc13)N(c1ccc(F)cc1F)c1ccc(CS(C)(=O)=O)cc1-2` (stereo not drawn) [Example 231, 4-(2,4-difluorophenyl)-10-methyl-7-((methylsulfonyl)methyl)-3-(quinolin-8-yl)-3,4-dihydro-1H-1,4,10-triazadibenzo[cd,f]azulen-11(10H)-one], for which the inhibition constant Ki in test [1] was found to be 0.039 µM; in test [2], 0.00542 µM. In test [3], the EC50 came out at 0.149 µM.

Regarding `Cn1cc2c3c(c[nH]c3c1=O)C(c1ccccn1)N(c1ccc(F)cc1F)c1ccc(CS(C)(=O)=O)cc1-2` (stereo not drawn) [Example 232, 4-(2,4-difluorophenyl)-10-methyl-7-((methylsulfonyl)methyl)-3-(pyridin-2-yl)-3,4-dihydro-1H-1,4,10-triazadibenzo[cd,f]azulen-11(10H)-one], the Ki in test [1] stood at 0.108 µM; in test [2] it was 0.00848 µM. Besides, the EC50 in test [3] was found to be 0.363 µM.

For `Cn1cc2c3c(c[nH]c3c1=O)C(c1cccc(C#N)c1)N(c1ccc(F)cc1F)c1ccc(CS(C)(=O)=O)cc1-2` (stereo not drawn) [Example 237, 3-(4-(2,4-difluorophenyl)-10-methyl-7-((methylsulfonyl)methyl)-11-oxo-3,4,10,11-tetrahydro-1H-1,4,10-triazadibenzo[cd,f]azulen-3-yl)benzonitrile], the inhibitory constant (Ki) in test [1] was 0.0218 µM; in test [2], 0.0121 µM. Also, in test [3], the EC50 was determined as 0.313 µM.

With `Cn1cc2c3c(c[nH]c3c1=O)C(Cn1ccccc1=O)N(c1ccc(F)cc1F)c1ccc(CS(C)(=O)=O)cc1-2` (stereo not drawn) [Example 238, 4-(2,4-difluorophenyl)-10-methyl-7-((methylsulfonyl)methyl)-3-((2-oxopyridin-1(2H)-yl)methyl)-3,4-dihydro-1H-1,4,10-triazadibenzo[cd,f]azulen-11(10H)-one], the inhibitory constant (Ki) in test [1] is 0.0621 µM; in test [2], 0.0046 µM. Also, the EC50 in test [3] is 0.275 µM.

For the molecule `CCNC(=O)c1[nH]c2c(=O)n(C)cc3c2c1C(C(=O)OCC)N(c1ccc(F)cc1F)c1ccc(CS(C)(=O)=O)cc1-3` (stereo not drawn) [Example 239, ethyl 4-(2,4-difluorophenyl)-2-(ethylcarbamoyl)-10-methyl-7-((methylsulfonyl)methyl)-11-oxo-3,4,10,11-tetrahydro-1H-1,4,10-triazadibenzo[cd,f]azulene-3-carboxylate], the Ki in test [1] was determined as 0.0319 µM; in test [2], 0.00212 µM. In addition, the EC50 in test [3] turned out to be 0.294 µM.

For `Cn1cc2c3c(c[nH]c3c1=O)CN(c1ccc(F)cc1F)c1c(C(N)=O)cc(CS(C)(=O)=O)cc1-2` [Example 240, 4-(2,4-difluorophenyl)-10-methyl-7-((methylsulfonyl)methyl)-11-oxo-3,4,10,11-tetrahydro-1H-1,4,10-triazadibenzo[cd,f]azulene-5-carboxamide], the inhibition constant (Ki) came out at 0.00314 µM in test [1] and 0.00193 µM in test [2]. Moreover, the EC50 in test [3] was 0.0859 µM.
